# Columns and labels:
# [1] = system: Cyperus serotinus, Rottb.; experiment: Preemergence weed control under flooded paddy conditions, CYPSE (Flatsedge); type: in vivo; as to herbicidal effect rating, CYPSE: meaning of each grade not given here
# Sagittaria pygmaea, L. = experiment: Preemergence weed control under flooded paddy conditions, SAGPY (Arrowhead (Pygmaea)); type: in vivo; details: flooded paddy; as to herbicidal effect rating, SAGPY: meaning of each grade not given here
# [2] = system: Echinochloa oryzoides (Ard.) Fritsch.; experiment: Preemergence weed control under flooded paddy conditions, ECHORC (Watergrass (Calif.)); type: in vivo; details: flooded paddy; as to herbicidal effect rating, ECHORC: meaning of each grade not given here
# Cyperus iria = experiment: Preemergence weed control under flooded paddy conditions, CYPIR (Rice Flatsedge); type: in vivo; details: flooded paddy; as to herbicidal effect rating, CYPIR: meaning of each grade not given here
# [3] = system: Oryza sativa, (L.) Tebonnet; experiment: Rice tolerance to post-transplant applications under flooded paddy conditions (Example 187), ORYSAT (Rice, Tebonnet); details: for herbicidal effect rating, ORYSAT (rice tolerance) / ORYSAT herbicidal rating (rice tolerance): rated three to four weeks after treatment; for herbicidal effect rating ORYSAT: rated 3-4 weeks after treatment; as to herbicidal effect rating ORYSAT: meaning of each grade not given here
# [4] = system: Monochoria vaginalis, Presl.; experiment: Preemergence weed control under flooded paddy conditions, MOOVA (Monochoria); type: in vivo; details: flooded paddy; as to herbicidal effect rating, MOOVA: meaning of each grade not given here
# [5] = 0.0313 kg/ha, preemergence weeds, rated three to four weeks after treatment
# [6] = 0.0625 kg/ha, preemergence weeds, rated three to four weeks after treatment
# [7] = 0.1250 kg/ha, preemergence weeds, rated three to four weeks after treatment
# [8] = 0.2500 kg/ha, preemergence weeds, rated three to four weeks after treatment
# [9] = Rate 0.0320 kg/ha, preemergence, rated 3-4 weeks after treatment
# [10] = Rate 0.0620 kg/ha, preemergence, rated 3-4 weeks after treatment
# [11] = Rate 0.1250 kg/ha, preemergence, rated 3-4 weeks after treatment
# [12] = Rate 0.2500 kg/ha, preemergence, rated 3-4 weeks after treatment
# [13] = Rate 0.5000 kg/ha, preemergence, rated 3-4 weeks after treatment
# [14] = 0.0320 kg/ha, preemergence, rated three to four weeks after treatment
# [15] = 0.0620 kg/ha, preemergence, rated three to four weeks after treatment
# [16] = 0.1250 kg/ha, preemergence, rated three to four weeks after treatment
# [17] = 0.2500 kg/ha, preemergence, rated three to four weeks after treatment
# [18] = 0.0313 kg/ha, preemergence, rated three to four weeks after treatment
# [19] = 0.0625 kg/ha, preemergence, rated three to four weeks after treatment
smiles,measurement,setting,value
"CCCCOCc1nsc2ccc(-n3c(=O)cc(C(F)(F)F)n(C)c3=O)cc12 [Example 204, 3-[3-(Butoxymethyl)-1,2-benzisothiazol-5-yl]-1-methyl-6-(trifluoromethyl)-2,4(1H,3H)-pyrimidinedione]","herbicidal effect rating, CYPSE",[1]; [5],0.0
same,"herbicidal effect rating, CYPSE",[1]; [6],0.0
same,"herbicidal effect rating, CYPSE",[1]; [7],2.0
same,"herbicidal effect rating, CYPSE",[1]; [8],7.0
same,"herbicidal effect rating, SAGPY","Sagittaria pygmaea, L.; [5]",0.0
same,"herbicidal effect rating, SAGPY","Sagittaria pygmaea, L.; [6]",0.0
same,"herbicidal effect rating, SAGPY","Sagittaria pygmaea, L.; [7]",0.0
same,"herbicidal effect rating, SAGPY","Sagittaria pygmaea, L.; [8]",0.0
same,"herbicidal effect rating, ECHORC",[2]; [5],0.0
same,"herbicidal effect rating, ECHORC",[2]; [6],2.0
same,"herbicidal effect rating, ECHORC",[2]; [7],4.0
same,"herbicidal effect rating, ECHORC",[2]; [8],9.0
same,"herbicidal effect rating, CYPIR",Cyperus iria; [5],9.0
same,"herbicidal effect rating, CYPIR",Cyperus iria; [6],9.0
same,"herbicidal effect rating, CYPIR",Cyperus iria; [7],9.0
same,"herbicidal effect rating, CYPIR",Cyperus iria; [8],9.0
same,"herbicidal effect rating, ORYSAT (rice tolerance)",[3]; 0.0313 kg/ha,3.0
same,"herbicidal effect rating, ORYSAT (rice tolerance)",[3]; 0.0625 kg/ha,4.0
same,"herbicidal effect rating, ORYSAT (rice tolerance)",[3]; 0.1250 kg/ha,7.0
same,"herbicidal effect rating, ORYSAT (rice tolerance)",[3]; 0.2500 kg/ha,7.0
same,"herbicidal effect rating, MOOVA",[4]; [5],0.0
same,"herbicidal effect rating, MOOVA",[4]; [6],2.0
same,"herbicidal effect rating, MOOVA",[4]; [7],4.0
same,"herbicidal effect rating, MOOVA",[4]; [8],7.0
"CC(C)S(=O)(=O)NC(=O)COc1ccccc1-c1nsc2ccc(-n3c(=O)cc(C(F)(F)F)n(C)c3=O)cc12 [Example 555, Acetamide, 2-{o-{5-[3,6-dihydro-3-methyl-2,6-dioxo-4-(trifluoromethyl)-1(2H)-pyrimidinyl)-1,2-benzisothiazol-3-yl}phenoxy}-N-(isopropylsulfonyl)-]","herbicidal effect rating, CYPSE",[1]; [9],4.0
same,"herbicidal effect rating, CYPSE",[1]; [10],6.0
same,"herbicidal effect rating, CYPSE",[1]; [11],8.0
same,"herbicidal effect rating, CYPSE",[1]; [12],8.0
same,"herbicidal effect rating, CYPSE",[1]; [13],9.0
same,"herbicidal effect rating, SAGPY","Sagittaria pygmaea, L.; [9]",0.0
same,"herbicidal effect rating, SAGPY","Sagittaria pygmaea, L.; [10]",0.0
same,"herbicidal effect rating, SAGPY","Sagittaria pygmaea, L.; [11]",2.0
same,"herbicidal effect rating, SAGPY","Sagittaria pygmaea, L.; [12]",7.0
same,"herbicidal effect rating, SAGPY","Sagittaria pygmaea, L.; [13]",0.0
same,"herbicidal effect rating, ECHORC",[2]; [9],1.6
same,"herbicidal effect rating, ECHORC",[2]; [10],2.3
same,"herbicidal effect rating, ECHORC",[2]; [11],4.6
same,"herbicidal effect rating, ECHORC",[2]; [12],9.0
same,"herbicidal effect rating, ECHORC",[2]; [13],9.0
same,"herbicidal effect rating, CYPIR",Cyperus iria; [9],4.0
same,"herbicidal effect rating, CYPIR",Cyperus iria; [10],6.0
same,"herbicidal effect rating, CYPIR",Cyperus iria; [11],9.0
same,"herbicidal effect rating, CYPIR",Cyperus iria; [12],9.0
same,"herbicidal effect rating, CYPIR",Cyperus iria; [13],3.0
same,herbicidal effect rating ORYSAT,[3]; Rate 0.0320 kg/ha,6.0
same,herbicidal effect rating ORYSAT,[3]; Rate 0.0620 kg/ha,6.0
same,herbicidal effect rating ORYSAT,[3]; Rate 0.1250 kg/ha,8.0
same,herbicidal effect rating ORYSAT,[3]; Rate 0.2500 kg/ha,9.0
same,herbicidal effect rating ORYSAT,[3]; Rate 0.5000 kg/ha,3.0
same,"herbicidal effect rating, MOOVA",[4]; [9],9.0
same,"herbicidal effect rating, MOOVA",[4]; [10],9.0
same,"herbicidal effect rating, MOOVA",[4]; [11],9.0
same,"herbicidal effect rating, MOOVA",[4]; [12],9.0
same,"herbicidal effect rating, MOOVA",[4]; [13],9.0
"Cc1ccc(OCC(=O)NS(C)(=O)=O)c(-c2nsc3ccc(-n4c(=O)cc(C(F)(F)F)n(C)c4=O)cc23)c1 [Example 121, N-{{{2-{5-[3,6-Dihydro-3-methyl-2,6-dioxo-4-(trifluoromethyl)-1(2H)-pyrimidinyl]-1,2-benzisothiazol-3-yl}-p-tolyl}oxy}acetyl}methanesulfonamide]","herbicidal effect rating, CYPSE",[1]; [5],0.0
same,"herbicidal effect rating, CYPSE",[1]; [6],0.0
same,"herbicidal effect rating, CYPSE",[1]; [7],2.0
same,"herbicidal effect rating, CYPSE",[1]; [8],4.0
same,"herbicidal effect rating, SAGPY","Sagittaria pygmaea, L.; [5]",0.0
same,"herbicidal effect rating, SAGPY","Sagittaria pygmaea, L.; [6]",0.0
same,"herbicidal effect rating, SAGPY","Sagittaria pygmaea, L.; [7]",0.0
same,"herbicidal effect rating, SAGPY","Sagittaria pygmaea, L.; [8]",0.0
same,"herbicidal effect rating, ECHORC",[2]; [5],6.0
same,"herbicidal effect rating, ECHORC",[2]; [6],7.0
same,"herbicidal effect rating, ECHORC",[2]; [7],8.0
same,"herbicidal effect rating, ECHORC",[2]; [8],9.0
same,"herbicidal effect rating, CYPIR",Cyperus iria; [5],0.0
same,"herbicidal effect rating, CYPIR",Cyperus iria; [6],0.0
same,"herbicidal effect rating, CYPIR",Cyperus iria; [7],2.0
same,"herbicidal effect rating, CYPIR",Cyperus iria; [8],4.0
same,"herbicidal effect rating, ORYSAT (rice tolerance)",[3]; 0.0313 kg/ha,3.0
same,"herbicidal effect rating, ORYSAT (rice tolerance)",[3]; 0.0625 kg/ha,4.0
same,"herbicidal effect rating, ORYSAT (rice tolerance)",[3]; 0.1250 kg/ha,6.0
same,"herbicidal effect rating, ORYSAT (rice tolerance)",[3]; 0.2500 kg/ha,9.0
same,"herbicidal effect rating, MOOVA",[4]; [5],9.0
same,"herbicidal effect rating, MOOVA",[4]; [6],9.0
same,"herbicidal effect rating, MOOVA",[4]; [7],9.0
same,"herbicidal effect rating, MOOVA",[4]; [8],9.0
"COC(=O)C(C)(C)c1nsc2ccc(-n3c(=O)cc(C(F)(F)F)n(C)c3=O)cc12 [Example 490, 1,2-Benzisothiazole-3-acetic acid, 5-[3,6-dihydro-3-methyl-2,6-dioxo-4-(trifluoromethyl)-1(2H)-pyrimidinyl]-alpha,alpha-dimethyl-, methyl ester]",CYPSE herbicidal rating,[1]; [14],9.0
same,CYPSE herbicidal rating,[1]; [15],9.0
same,CYPSE herbicidal rating,[1]; [16],9.0
same,CYPSE herbicidal rating,[1]; [17],9.0
same,SAGPY herbicidal rating,"Sagittaria pygmaea, L.; [14]",6.0
same,SAGPY herbicidal rating,"Sagittaria pygmaea, L.; [15]",9.0
same,SAGPY herbicidal rating,"Sagittaria pygmaea, L.; [16]",9.0
same,SAGPY herbicidal rating,"Sagittaria pygmaea, L.; [17]",9.0
same,ECHORC herbicidal rating,[2]; [14],8.0
same,ECHORC herbicidal rating,[2]; [15],9.0
same,ECHORC herbicidal rating,[2]; [16],9.0
same,ECHORC herbicidal rating,[2]; [17],9.0
same,CYPIR herbicidal rating,Cyperus iria; [14],9.0
same,CYPIR herbicidal rating,Cyperus iria; [15],9.0
same,CYPIR herbicidal rating,Cyperus iria; [16],9.0
same,CYPIR herbicidal rating,Cyperus iria; [17],9.0
same,ORYSAT herbicidal rating (rice tolerance),[3]; 0.0320 kg/ha,7.5
same,ORYSAT herbicidal rating (rice tolerance),[3]; 0.0620 kg/ha,9.0
same,ORYSAT herbicidal rating (rice tolerance),[3]; 0.1250 kg/ha,8.5
same,ORYSAT herbicidal rating (rice tolerance),[3]; 0.2500 kg/ha,9.0
same,MOOVA herbicidal rating,[4]; [14],9.0
same,MOOVA herbicidal rating,[4]; [15],9.0
same,MOOVA herbicidal rating,[4]; [16],9.0
same,MOOVA herbicidal rating,[4]; [17],9.0
"COC(=O)COc1ccc(C)cc1-c1nsc2ccc(-n3c(=O)cc(C)n(C)c3=O)cc12 [Example 38, Methyl {{2-[5-(3,6-dihydro-3,4-dimethyl-2,6-dioxo-1(2H)-pyrimidinyl)-1,2-benzisothiazol-3-yl]-p-tolyl}oxy}acetate]","herbicidal effect rating, CYPSE",[1]; [18],0.0
same,"herbicidal effect rating, CYPSE",[1]; [19],0.0
same,"herbicidal effect rating, CYPSE",[1]; [16],0.0
same,"herbicidal effect rating, CYPSE",[1]; [17],0.0
same,"herbicidal effect rating, SAGPY","Sagittaria pygmaea, L.; [18]",0.0
same,"herbicidal effect rating, SAGPY","Sagittaria pygmaea, L.; [19]",0.0
same,"herbicidal effect rating, SAGPY","Sagittaria pygmaea, L.; [16]",0.0
same,"herbicidal effect rating, SAGPY","Sagittaria pygmaea, L.; [17]",0.0
same,"herbicidal effect rating, ECHORC",[2]; [18],0.0
same,"herbicidal effect rating, ECHORC",[2]; [19],0.0
same,"herbicidal effect rating, ECHORC",[2]; [16],1.0
same,"herbicidal effect rating, ECHORC",[2]; [17],2.0
same,"herbicidal effect rating, CYPIR",Cyperus iria; [18],0.0
same,"herbicidal effect rating, CYPIR",Cyperus iria; [19],0.0
same,"herbicidal effect rating, CYPIR",Cyperus iria; [16],0.0
same,"herbicidal effect rating, CYPIR",Cyperus iria; [17],0.0
same,"herbicidal effect rating, ORYSAT (rice tolerance)",[3]; 0.0313 kg/ha,0.0
same,"herbicidal effect rating, ORYSAT (rice tolerance)",[3]; 0.0625 kg/ha,0.0
same,"herbicidal effect rating, ORYSAT (rice tolerance)",[3]; 0.1250 kg/ha,0.0
same,"herbicidal effect rating, ORYSAT (rice tolerance)",[3]; 0.2500 kg/ha,0.0
same,"herbicidal effect rating, MOOVA",[4]; [18],0.0
same,"herbicidal effect rating, MOOVA",[4]; [19],0.0
same,"herbicidal effect rating, MOOVA",[4]; [16],0.0
same,"herbicidal effect rating, MOOVA",[4]; [17],0.0

# From patent EP0908457B1, “3-(1,2-benzisothiazol- and isoxazol-5-Y1)-2,4(1H,3H)-pyrimidinedione or thione and 3-(1,2-benzisothiazol- and isoxazol-5-y1)-4(3H)-pyrimidinone or thione herbicidal agents” (BASF AKTIENGESELLSCHAFT, priority 1997, dated 1999)
